# Measurements from the supplement of paper PMC10307832.
# Experiments:
# Assay in all cases: relative viability (nuclei count vs DMSO), 5 days (fraction); higher = more cells survive
# ALW-II-49-7 + Foretinib = compound: Cc1ccc(C(=O)Nc2cccc(C(F)(F)F)c2)cc1Nc1cncc(C(N)=O)c1 [ALW-II-49-7] + COc1cc2c(Oc3ccc(NC(=O)C4(C(=O)Nc5ccc(F)cc5)CC4)cc3F)ccnc2cc1OCCCN1CCOCC1 [Foretinib] (partner 0.25 µM)
# Outline: (§1)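 Five library-drug doses in √10 steps were combined with a fixed anchor-drug dose, or a single drug was given alone, by pin tool to lung cancer cell lines in 1536-well plates the day after seeding. Nuclei were stained and counted after 5 days. Relative viability is the nuclei count in treated wells over that in vehicle wells, taken as the median of duplicate plates.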
# XMD13-2 + Alpelisib = compound: C1CC1C(=O)NC2=NNC3=C2C=CC(=C3)C4=CC(=CC=C4)C(=O)NC5CC5 [XMD13-2] + Cc1nc(NC(=O)N2CCC[C@H]2C(N)=O)sc1-c1ccnc(C(C)(C)C(F)(F)F)c1 [Alpelisib] (partner 2 µM)
# Outline: as §1
# Dasatinib + Decitabine = compound: Cc1nc(Nc2ncc(C(=O)Nc3c(C)cccc3Cl)s2)cc(N2CCN(CCO)CC2)n1 [Dasatinib] + Nc1ncn([C@H]2C[C@H](O)[C@@H](CO)O2)c(=O)n1 [Decitabine] (partner 2 µM)
# Outline: as §1
# ALW-II-49-7 + Alpelisib = compound: Cc1ccc(C(=O)Nc2cccc(C(F)(F)F)c2)cc1Nc1cncc(C(N)=O)c1 [ALW-II-49-7] + Cc1nc(NC(=O)N2CCC[C@H]2C(N)=O)sc1-c1ccnc(C(C)(C)C(F)(F)F)c1 [Alpelisib] (partner 2 µM)
# Outline: as §1
Cell Line,relative viability (ALW-II-49-7 + Foretinib; first compound 0.08 µM),relative viability (ALW-II-49-7 + Foretinib; first compound 0.253 µM),relative viability (ALW-II-49-7 + Foretinib; first compound 0.8 µM),relative viability (ALW-II-49-7 + Foretinib; first compound 2.53 µM),relative viability (ALW-II-49-7 + Foretinib; first compound 8 µM),relative viability (XMD13-2 + Alpelisib; first compound 0.05 µM),relative viability (XMD13-2 + Alpelisib; first compound 0.1581 µM),relative viability (XMD13-2 + Alpelisib; first compound 0.5 µM),relative viability (XMD13-2 + Alpelisib; first compound 1.581 µM),relative viability (XMD13-2 + Alpelisib; first compound 5 µM),relative viability (Dasatinib + Decitabine; first compound 0.005 µM),relative viability (Dasatinib + Decitabine; first compound 0.01581 µM),relative viability (Dasatinib + Decitabine; first compound 0.05 µM),relative viability (Dasatinib + Decitabine; first compound 0.1581 µM),relative viability (Dasatinib + Decitabine; first compound 0.5 µM),relative viability (ALW-II-49-7 + Alpelisib; first compound 0.08 µM),relative viability (ALW-II-49-7 + Alpelisib; first compound 0.253 µM),relative viability (ALW-II-49-7 + Alpelisib; first compound 0.8 µM),relative viability (ALW-II-49-7 + Alpelisib; first compound 2.53 µM),relative viability (ALW-II-49-7 + Alpelisib; first compound 8 µM)
COR-L 105,1.02,0.949,0.992,0.99,1.23,1.06,1.36,0.984,0.964,0.945,0.599,0.604,0.478,0.445,0.297,1.14,1.03,0.894,0.93,0.943
Calu-6,0.914,0.832,0.912,0.832,0.805,1.02,0.948,1.04,0.923,0.757,,,,,,1.04,0.984,0.95,0.91,0.791
ChaGo-K-1,0.971,0.968,0.931,0.905,0.91,,,,,,0.545,0.5,0.543,0.49,0.416,,,,,
EBC-1,0.0976,0.11,0.098,0.0988,0.114,0.999,0.801,0.907,0.738,0.483,,,,,,0.791,0.783,0.731,0.644,0.522
EKVX,0.781,0.753,0.898,1.05,0.746,1.12,0.882,0.92,0.931,0.937,0.307,0.291,0.304,0.187,0.146,0.929,0.78,0.868,0.685,0.802
EMC-BAC-2,0.968,1.04,0.989,0.885,0.878,0.844,0.748,0.752,0.703,0.57,0.982,0.946,0.824,0.758,0.712,0.843,0.703,0.758,0.715,0.645
EPLC-272H,0.665,,0.712,0.643,0.917,1.03,0.856,1.07,0.759,0.463,0.39,0.392,0.381,0.295,0.153,0.92,0.879,1.02,1.08,1.06
